Experimental data published in publication PMC12040169 (PLOS Biology, 2025).

Test: in vitro
Settings: human, hela cells, % viability

In order of falling viability at 28.5 h, 10 µM:
1. CC(NC(=O)N(CCCN)Cc1c[nH]c(-c2ccccc2)n1)c1cccc2ccccc12 (stereo not drawn) [CBK034672C]  119%
2. Cn1cc(-c2ccccc2CN2CCCC2)c2onc(-c3ccccc3)c2c1=O [CBK036319C]  115%
3. O=C(O)CNS(=O)(=O)c1cc(Br)c(Cl)s1 [CBK034455]  114%
4. O=S(=O)(Nc1nc(CCNCCO)cs1)c1ccc(Oc2ccccc2)cc1 [CBK034632]  111%
5. O=C(CNS(=O)(=O)c1ccc(Cl)c(Cl)c1Cl)N1CCOCC1 [CBK034472]  110%
6. COc1ccc(S(=O)(=O)Nc2sccc2C#N)cc1 [CBK034732]  110%
7. COC(=O)c1sccc1NS(=O)(=O)c1ccccc1C(F)(F)F [CBK034717]  108%
8. CC(=O)N1CCC(C(=O)NC(=O)NCc2ccc(F)cc2)CC1 [CBK034834]  107%
9. COc1cc(CNC(=O)NC(=O)C2CCN(CCCc3ccc(Cl)c(Cl)c3)CC2)cc(OC)c1OC [CBK034858]  107%
10. COc1cc(CNC(=O)NC(=O)C2CCN(C(C)=O)CC2)cc(OC)c1OC [CBK034833]  105%
11. CCN(CC)C(=O)CNS(=O)(=O)c1ccc(OC)c(OC)c1 [CBK034499]  103%
12. Cc1ccc(NS(=O)(=O)c2c(Br)sc3ccnc(N4CCN(C)CC4)c23)cc1 [CBK034654C]  103%
13. CCNC(=O)NC(=O)C1CCN(CCc2ccc(O)c(OC)c2)CC1 [CBK035184]  102%
14. NCCc1nc(-c2ccccc2)c2cnccn12 [CBK035705]  101%
15. O=C(CNS(=O)(=O)c1cc(Br)c(Cl)s1)N1CCOCC1 [CBK034474]  100%
16. COc1ccc(CNC(=O)NC(=O)C2CCN(CCCc3ccc4c(c3)OCO4)CC2)c(OC)c1 [CBK034875]  100%
17. c1ccc(-c2nc(C3CCNCC3)n3ccncc23)cc1 [CBK035434]  100%
18. COc1ccn2c(CCCN(C)C3Cc4ccccc4C3)nc(-c3ccc4c(c3)OCO4)c2c1 [CBK036303]  100%
19. CC(NC(=O)N(CCCN)Cc1ccccc1C(F)(F)F)c1ccccc1 (stereo not drawn) [CBK034668C]  99.9%
20. CN1CCN(C(=O)CNS(=O)(=O)c2cc(F)c(Br)cc2F)CC1 [CBK034481]  99.5%
21. CC(=O)N1CCC(C(=O)NC(=O)NC2CCCCC2)CC1 [CBK034847]  99.4%
22. COc1cccc(CCNC(=O)NC(=O)C2CCN(S(C)(=O)=O)CC2)c1 [CBK034860]  99%
23. O=C(O)CNS(=O)(=O)c1ccc(-c2ccccc2)cc1 [CBK034457]  98.9%
24. CCCCCNC(=N)NC1Cc2ccccc2C1 [CBK036321T]  98.8%
25. CCOc1ccccc1NC(=O)NC(=O)C1CCN(C(C)c2ccc(Cl)cc2)CC1 (stereo not drawn) [CBK034899]  98.4%
26. CN1CCN(C(=O)c2ccc(NS(=O)(=O)c3ccc(Oc4ccccc4)cc3)cc2)CC1 [CBK034559]  97.4%
27. CN1CCC(Oc2ncccc2OCc2ccccc2)CC1 [CBK036311]  97.4%
28. COc1ccc(CNC(=O)NC(=O)C2CCN(C(C)=O)CC2)c(OC)c1 [CBK034839]  96.9%
29. CC(=O)N1CCC(C(=O)NC(=O)NCCc2ccccc2)CC1 [CBK034851]  96.9%
30. COc1ccc(S(=O)(=O)NCC(=O)O)cc1OC [CBK034454]  96.2%
31. O=C(NCc1ccc(F)cc1)NC(=O)C1CCN(CCc2ccc(Br)cc2)CC1 [CBK034836]  95.2%
32. COc1cccc(-c2nc(C3CCN(CCc4ccc(F)cc4)CC3)n3ccccc23)c1 [CBK035373]  94.7%
33. CNCCc1nc(-c2cccs2)c2ccccn12 [CBK035905]  94.5%
34. CCN(CC)C(=O)CNS(=O)(=O)Cc1ccccc1[N+](=O)[O-] [CBK034504]  94.3%
35. Cc1ccc(NC(=O)NC(=O)C2CCN(CCCc3ccc(F)cc3)CC2)cc1Cl [CBK035057]  94.2%
36. O=C(O)CNS(=O)(=O)c1ccc2ccccc2c1 [CBK034460]  94.1%
37. CN1CCN(C(=O)CNS(=O)(=O)c2cc(Br)c(Cl)s2)CC1 [CBK034482]  94%
38. O=C(NC(=O)C1CCNCC1)Nc1ccccc1 [CBK034794]  93.8%
39. CC(C)N1CCC(C(=O)NC(=O)Nc2ccc3c(c2)OCCO3)CC1 [CBK034799]  93.6%
40. Cc1ccc(NC(=O)NC(=O)C2CCN(S(C)(=O)=O)CC2)cc1 [CBK034863]  93.4%
41. Cc1ccc2[nH]cc(CCN3CCC(C(=O)NC(=O)Nc4ccccc4F)CC3)c2c1 [CBK034974]  93%
42. O=C(NC(=O)C1CCN(CC2COc3ccccc3O2)CC1)Nc1ccccc1 (stereo not drawn) [CBK035267]  92.4%
43. O=C(NC(=O)C1CCN(CCc2cccc(C(F)(F)F)c2)CC1)Nc1cccc2ccccc12 [CBK035070]  92.2%
44. CC(C)N1CCC(C(=O)NC(=O)NCCOc2cccc3ccccc23)CC1 [CBK034807]  91.9%
45. COc1cccc(CNC(=O)NC(=O)C2CCN(C)CC2)c1 [CBK034828]  91.9%
46. O=C(O)CNS(=O)(=O)c1cc(Cl)sc1Cl [CBK034452]  91.4%
47. COc1cc(CCN2CCC(c3nc(-c4ccccc4)c4ccccn34)CC2)cc(OC)c1OC [CBK035278]  91%
48. COc1ccc(Cl)cc1NC(=O)NC(=O)C1CCN(CCOc2cccc3ccccc23)CC1 [CBK035116]  90.9%
49. O=C(CN1CCCC1=O)N1CCN(C(=O)c2ccc(Br)o2)CC1 [CBK034530]  90.8%
50. Clc1ccc(-c2nc(C3CCN(CCc4ccccc4)CC3)n3ccccc23)cc1 [CBK035316]  90.7%
51. CNCCc1nc(-c2ccc(F)cc2)c2cnccn12 [CBK035927]  90.7%
52. CCCc1ccc(S(=O)(=O)Nc2ccc(C(=O)N3CCN(C)CC3)cc2)cc1 [CBK034547]  90.1%
53. CC(C)NC(=O)NC(=O)C1CCN(CCCc2ccc(Cl)c(Cl)c2)CC1 [CBK034947]  89.8%
54. Cc1ccc(C#N)c(S(=O)(=O)Nc2cc(N3C[C@@H](C)N[C@@H](C)C3)c3occc3c2)c1 [CBK034756C]  89.7%
55. Cc1ccc(NC(=O)NC(=O)C2CCN(CCc3ccc(F)cc3)CC2)cc1Cl [CBK035047]  89.5%
56. CCOc1ccccc1NC(=O)NC(=O)C1CCN(CCCc2ccc3c(c2)OCO3)CC1 [CBK034924]  88.6%
57. Cc1ccccc1NC(=O)NC(=O)C1CCN(S(C)(=O)=O)CC1 [CBK034862]  87.7%
58. CS(=O)(=O)N1CCC(c2nc(-c3ccc(C(F)(F)F)cc3)c3ccccn23)CC1 [CBK036006]  86.4%
59. O=C(O)CNS(=O)(=O)c1cccc2cccnc12 [CBK034462]  85.9%
60. O=C(NCc1ccccc1)NC(=O)C1CCN(CCCOc2cccc3ccccc23)CC1 [CBK034856]  84.6%
61. O=C(NC(=O)C1CCN(CCc2ccc3c(c2)CCO3)CC1)Nc1ccccc1Cl [CBK035147]  84.3%
62. Cn1cc(CCN2CCC(C(=O)NC(=O)Nc3ccccc3)CC2)c2ccccc21 [CBK034867]  83.6%

Same assay, conditions: human, hela cells, % viability, bulk resorufin, single well

In the case of `COC(=O)c1cccc2c3c(n(Cc4ccccc4)c12)CCCC3=O` [CBK036304], the viability at 28.5 h, 10 µM is reported as 94.7%.
